Data on 15 compounds can be found in patent US20100311714A1, “1H-IMIDAZO[4,5-c]QUINOLINONE COMPOUNDS” (priority 2009, published 2010).

Some results are limits rather than exact numbers.

In experiment [1] the test system is PKB Ser473 phosphorylation in Rat1-myr-HA-p110 delta cells. In words: Reverse protein array, PKB Ser473 phosphorylation in Rat1-myr-HA-p110 delta cells. The experiment is classed as cell-based. To be noted: Rattus norvegicus, 0.5 h, 30 minutes compound incubation, read-out: p-PKB/IC50_delta.
The subject of experiment [2] is PKB Ser473 phosphorylation in Rat1-myr-HA-p110 beta cells. In words: Reverse protein array, PKB Ser473 phosphorylation in Rat1-myr-HA-p110 beta cells. The format is cell-based. To be noted: Rattus norvegicus, 0.5 h, 30 minutes compound incubation, read-out: p-PKB/IC50_beta.

With `COc1cc(-c2ccc3ncc4c(c3c2)n(-c2ccc(N(C)C)nc2C)c(=O)n4C)cnc1CO` [Example 19.4, 1-(6-Dimethylamino-2-methyl-pyridin-3-yl)-8-(6-hydroxymethyl-5-methoxy-pyridin-3-yl)-3-methyl-1,3-dihydro-imidazo[4,5-c]quinolin-2-one], the values for the IC50 in experiment [1] and in experiment [2] were 74.5 nM and 40.2 nM, respectively.

As to `Cc1nc(N(C)C)ccc1-n1c(=O)n(C)c2cnc3ccc(-c4cncc(N)c4)cc3c21` [Example 19.5, 8-(5-Amino-pyridin-3-yl)-1-(6-dimethylamino-2-methyl-pyridin-3-yl)-3-methyl-1,3-dihydro-imidazo[4,5-c]quinolin-2-one], the figures for the IC50 in experiment [1] and in experiment [2] were 46.4 nM and 11.2 nM, respectively.

On to `COCC(=O)Nc1ccc(-n2c(=O)n(C)c3cnc4ccc(-c5cncc(N)c5)cc4c32)c(C)n1` [Example 20.1, N-{5-[8-(5-Amino-pyridin-3-yl)-3-methyl-2-oxo-2,3-dihydro-imidazo[4,5-c]quinolin-1-yl]-6-methyl-pyridin-2-yl}-2-methoxy-acetamide], for which the values for the IC50 in experiment [1] and in experiment [2] were 194 nM and 170 nM, respectively.

For `CCOc1ccc(-c2ccc3ncc4c(c3c2)n(-c2ccc(NC(=O)COC)nc2C)c(=O)n4C)cn1` [Example 20.2, N-{5-[8-(6-Ethoxy-pyridin-3-yl)-3-methyl-2-oxo-2,3-dihydro-imidazo[4,5-c]quinolin-1-yl]-6-methyl-pyridin-2-yl}-2-methoxy-acetamide], the results for the IC50 in experiment [1] and in experiment [2] were 326 nM and 210 nM, respectively.

`CNc1ncc(-c2ccc3ncc4c(c3c2)n(-c2ccc(NC(=O)COC)nc2C)c(=O)n4C)cn1` [Example 20.3, 2-Methoxy-N-{6-methyl-5-[3-methyl-8-(2-methylamino-pyrimidin-5-yl)-2-oxo-2,3-dihydro-imidazo[4,5-c]quinolin-1-yl]-pyridin-2-yl}-acetamide]: the results for the IC50 in experiment [1] and in experiment [2] were 218 nM and 16.3 nM, respectively.

Take `CNc1ccc(-c2ccc3ncc4c(c3c2)n(-c2ccc(NC(=O)COC)nc2C)c(=O)n4C)cn1` [Example 20.4, 2-Methoxy-N-{6-methyl-5-[3-methyl-8-(6-methylamino-pyridin-3-yl)-2-oxo-2,3-dihydro-imidazo[4,5-c]quinolin-1-yl]-pyridin-2-yl}-acetamide]: the IC50 in experiment [1] was determined as 197 nM; in experiment [2] it was 9.5 nM.

With `COCC(=O)Nc1ccc(-n2c(=O)n(C)c3cnc4ccc(-c5cncc(OC(C)C)c5)cc4c32)c(C)n1` [Example 20.5, N-{5-[8-(5-Isopropoxy-pyridin-3-yl)-3-methyl-2-oxo-2,3-dihydro-imidazo[4,5-c]quinolin-1-yl]-6-methyl-pyridin-2-yl}-2-methoxy-acetamide], the IC50 in experiment [1] was determined as 352 nM; in experiment [2], 167 nM.

For the compound `COCCOc1ccc(-n2c(=O)n(C)c3cnc4ccc(-c5cncc(N6CCC6)c5)cc4c32)c(C)n1` [Example 22.2, 8-(5-Azetidin-1-yl-pyridin-3-yl)-1-[6-(2-methoxy-ethoxy)-2-methyl-pyridin-3-yl]-3-methyl-1,3-dihydro-imidazo[4,5-c]quinolin-2-one], the IC50 in experiment [1] is 83.9 nM; in experiment [2], 32.1 nM.

With `COCCOc1ccc(-n2c(=O)n(C)c3cnc4ccc(-c5cnc(COC)c(OC)c5)cc4c32)c(C)n1` [Example 22.3, 1-[6-(2-Methoxy-ethoxy)-2-methyl-pyridin-3-yl]-8-(5-methoxy-6-methoxymethyl-pyridin-3-yl)-3-methyl-1,3-dihydro-imidazo[4,5-c]quinolin-2-one], the values for the IC50 in experiment [1] and in experiment [2] were 210 nM and 77.6 nM, respectively.

In the case of `Cc1nc(N2CC(F)(F)C2)ccc1-n1c(=O)n(C)c2cnc3ccc(-c4cncc(C(C)(C)O)c4)cc3c21` [Example 24.2, 1-[6-(3,3-Difluoro-azetidin-1-yl)-2-methyl-pyridin-3-yl]-8-[5-(1-hydroxy-1-methyl-ethyl)-pyridin-3-yl]-3-methyl-1,3-dihydro-imidazo[4,5-c]quinolin-2-one], the IC50 in experiment [1] stood at 30 nM; in experiment [2] it was 30.7 nM.

Turning to `CCNc1cc(-c2ccc3ncc4c(c3c2)n(-c2ccc(N3CC(F)(F)C3)nc2C)c(=O)n4C)cnc1CO` [Example 24.3, 1-[6-(3,3-Difluoro-azetidin-1-yl)-2-methyl-pyridin-3-yl]-8-(5-ethylamino-6-hydroxymethyl-pyridin-3-yl)-3-methyl-1,3-dihydro-imidazo[4,5-c]quinolin-2-one], the IC50 in experiment [1] was 8.1 nM; in experiment [2] it was less than 4.57 nM.

Regarding `CNc1ccc(-c2ccc3ncc4c(c3c2)n(-c2ccc(N3CCCC3)nc2C)c(=O)n4C)cn1` [Example 25.1, 3-Methyl-8-(6-methylamino-pyridin-3-yl)-1-(2-methyl-6-pyrrolidin-1-yl-pyridin-3-yl)-1,3-dihydro-imidazo[4,5-c]quinolin-2-one], the IC50 in experiment [1] worked out at 26 nM; in experiment [2], 10.7 nM.

Regarding `Cc1nc(N2CCC(O)C2)ccc1-n1c(=O)n(C)c2cnc3ccc(-c4cncc(OC(C)C)c4)cc3c21` (stereo not drawn) [Example 27.1, 1-[6-(3-Hydroxy-pyrrolidin-1-yl)-2-methyl-pyridin-3-yl]-8-(5-isopropoxy-pyridin-3-yl)-3-methyl-1,3-dihydro-imidazo[4,5-c]quinolin-2-one], the IC50 in experiment [1] amounted to 64.5 nM; in experiment [2], 85.7 nM.

With `CNc1cc(-c2ccc3ncc4c(c3c2)n(-c2ccc(C(F)(F)F)nc2C)c(=O)n4C)cnc1CO` [Example 33.2, 8-(6-Hydroxymethyl-5-methylamino-pyridin-3-yl)-3-methyl-1-(2-methyl-6-trifluoromethyl-pyridin-3-yl)-1,3-dihydro-imidazo[4,5-c]quinolin-2-one], the IC50 was 28.2 nM in experiment [1] and less than 4.47 nM in experiment [2].

For `Cc1nc(N2CC(F)(F)C(F)(F)C2)ccc1-n1c(=O)n(C)c2cnc3ccc(-c4cncc(C(C)(C)O)c4)cc3c21` [Example 35.1, 8-[5-(1-Hydroxy-1-methyl-ethyl)-pyridin-3-yl]-3-methyl-1-[2-methyl-6-(3,3,4,4-tetrafluoro-pyrrolidin-1-yl)-pyridin-3-yl]-1,3-dihydro-imidazo[4,5-c]quinolin-2-one], the IC50 in experiment [1] was 25.5 nM; in experiment [2] it was 27.9 nM.
